Laboratory results reported in ChEMBL document CHEMBL1255241, “Novel characteristics of community-acquired methicillin-resistant Staphylococcus aureus strains belonging to multilocus sequence type 59 in Taiwan” (2008).
In brackets after ≈: the same amount, converted by molar mass.

Experiments:
Type in all cases: functional
Staphylococcus aureus [1] = experiment: Antibacterial activity against group 3-v1 PVL negative community-acquired methicillin-resistant Staphylococcus aureus ST 900 expressing SCCmec type III gene by agar dilution method
Staphylococcus aureus [2] = experiment: Antibacterial activity against group 2 PVL+ community-acquired methicillin-resistant Staphylococcus aureus ST 30 expressing SCCmec type IVc gene by agar dilution method
Staphylococcus aureus [3] = experiment: Antibacterial activity against group 4-v1 PVL negative community-acquired methicillin-resistant Staphylococcus aureus ST 59 expressing SCCmec type X gene by agar dilution method
Staphylococcus aureus [4] = experiment: Antibacterial activity against group 3 PVL negative community-acquired methicillin-resistant Staphylococcus aureus ST 239 expressing SCCmec type III gene by agar dilution method
Staphylococcus aureus [5] = experiment: Antibacterial activity against group 4 PVL negative community-acquired methicillin-resistant Staphylococcus aureus ST 59 expressing SCCmec type IVx gene by agar dilution method
Staphylococcus aureus [6] = experiment: Antibacterial activity against group 1-v1 PVL+ community-acquired methicillin-resistant Staphylococcus aureus ST 59 expressing SCCmec type V gene by agar dilution method
Staphylococcus aureus [7] = experiment: Antibacterial activity against group 1-v4 PVL+ community-acquired methicillin-resistant Staphylococcus aureus ST 59 expressing SCCmec type VT gene by agar dilution method
Staphylococcus aureus [8] = experiment: Antibacterial activity against group 6 PVL negative community-acquired methicillin-resistant Staphylococcus aureus ST 8 expressing SCCmec type IVx gene by agar dilution method
Staphylococcus aureus [9] = experiment: Antibacterial activity against group 4-v2 PVL negative community-acquired methicillin-resistant Staphylococcus aureus ST 59 expressing SCCmec type IVx gene by agar dilution method
Staphylococcus aureus [10] = experiment: Antibacterial activity against group 5 PVL negative community-acquired methicillin-resistant Staphylococcus aureus ST 5 expressing SCCmec type II gene by agar dilution method
Staphylococcus aureus [11] = experiment: Antibacterial activity against group 1 PVL+ community-acquired methicillin-resistant Staphylococcus aureus ST 59 expressing SCCmec type VT gene by agar dilution method
Staphylococcus aureus [12] = experiment: Antibacterial activity against group 1-v2 PVL+ community-acquired methicillin-resistant Staphylococcus aureus ST 59 expressing SCCmec type X gene by agar dilution method
Staphylococcus aureus [13] = experiment: Antibacterial activity against group 4-v3 PVL negative community-acquired methicillin-resistant Staphylococcus aureus ST 59 expressing SCCmec type IVc gene by agar dilution method
Staphylococcus aureus [14] = experiment: Antibacterial activity against group 1-v3 PVL+ community-acquired methicillin-resistant Staphylococcus aureus ST 59 expressing SCCmec type V gene by agar dilution method

SMILES: Cc1onc(-c2ccccc2)c1C(=O)N[C@@H]1C(=O)N2[C@@H]1SC(C)(C)[C@@H]2C(=O)O [OXACILLIN]
- MIC (Staphylococcus aureus [1]): ≥ 128 µg/mL
- MIC (Staphylococcus aureus [2]): 32 µg/mL (≈ 79.7 µM)
- MIC (Staphylococcus aureus [3]): 32 µg/mL (≈ 79.7 µM)
- MIC (Staphylococcus aureus [4]): ≥ 128 µg/mL
- MIC (Staphylococcus aureus [5]): ≥ 128 µg/mL
- MIC (Staphylococcus aureus [6]): 64 µg/mL (≈ 159 µM)
- MIC (Staphylococcus aureus [7]): 4 µg/mL (≈ 9.96 µM)
- MIC (Staphylococcus aureus [8]): 32 µg/mL (≈ 79.7 µM)
- MIC (Staphylococcus aureus [9]): 64 µg/mL (≈ 159 µM)
- MIC (Staphylococcus aureus [10]): ≥ 128 µg/mL
- MIC (Staphylococcus aureus [11]): 32 µg/mL (≈ 79.7 µM)
- MIC (Staphylococcus aureus [12]): 64 µg/mL (≈ 159 µM)
- MIC (Staphylococcus aureus [13]): 32 µg/mL (≈ 79.7 µM)
- MIC (Staphylococcus aureus [14]): 4 µg/mL (≈ 9.96 µM)
